In patent publication US20030045541A1, “GABA-Receptor modulators with NMDA-Antagonistic activity” (priority 2001, published 2003):

Assays:
[1] = system: glutamatergic EPSCs; assay: Excitatory post-synaptic flows (EPSCs), patch-clamp on cultivated neurons; type: cell-based, Wistar; details: P<0.05
Procedure: (§1) The measurements were produced on cultivated neurons of Wistar embryos on the eighteenth day of gestation. After the preparation, the neurons were grown on small plates. To this end, small cover glasses for microscopic preparations with a diameter of 12 mm (assistant) were used. In each case four of the small cover glasses were transferred to a small plastic dish (Nuncion).
(§2) As preparation media, the following solutions were used: GBSS (Grey's buffered salt solution, Sigma) supplemented with 10 mmol of HEPES (N-2-hydroxyethyl-piperazine-N-2-ethanesulfonic acid, Sigma), adjusted to pH 7.3 with NaOH (Sigma). […]
(§3) The measurements were carried out at room temperature. […] The thus modulated signals were visualized by means of a storage oscilloscope and recorded with a thermal plotter. At the same time, the signals were detected via a […] and recorded on a videotape. The stored data were later played back, digitalized again and then evaluated “offline” with a PC. […]
(§4) Excitatory post-synaptic flows (EPSCs) were isolated by adding the GABAA-receptor antagonists bicuculline (20 μm) and the GABAA-receptor antagonist picrotoxin (10 μm) that has an allosteric effect. […] The pure EPSCs that can now be detected could be blocked completely by adding 10 μm of NBQX and 30 μm of APV and thus are purely glutamatergic.

[2] = system: NMDA receptor; assay: Isolated NMDA portion of EPSCs (10 μm NBQX applied); type: cell-based, Wistar; details: 10 μm of NBQX on isolated EPSCs, 1 μm of compound; n=7
Procedure: as §1, §2, §3
as §4, with “glutamatergic. […]” for “glutamatergic.”

[3] = system: AMPA-ergic activity; assay: Isolated AMPA-ergic activity of EPSCs (30 μm APV applied); type: cell-based, Wistar; details: 30 μm of APV on isolated EPSCs; n=3
Procedure: as §1, §2, §3
as §4, with “glutamatergic. […]” for “glutamatergic.”

[4] = system: GABAA-receptor-mediated IPSCs; assay: Inhibitory post-synaptic flows (IPSCs), patch-clamp on cultivated neurons; type: cell-based, Wistar
Procedure: as §1
As preparation media, the following solutions were used: GBSS (Grey's buffered salt solution, Sigma) supplemented with 10 mmol of HEPES (N-2-hydroxyethyl-piperazine-N-2-ethanesulfonic acid, Sigma), adjusted to pH 7.3 with NaOH (Sigma). As culture media, the following were used: DMEM (Sigma), glucose-containing, equine serum 10% (Sigma) and glutamine. The cells were generally divided so that at the beginning of the culture, 50,000 cells per small plate were present. The medium was changed according to the preparation after 24 hours and then changed after three days in each case. Synaptic spontaneous activity developed generally starting from the tenth day in vitro.
The extracellular measuring solution had the following composition (in mmol): NaCl 140; KCl 5.4; CaCl2 2; HEPES 10; MgCl 1; glucose 25. The pH was set at 7.4 with NaOH. IPSCs were isolated by adding 1,2,3,4,-tetrahydro-6-nitro-2,3-di-oxo-benzo-quinoxaline-7-sulfonamide (NBQX 10 μm) and DL-2-amino-5-phosphonovaleric acid (±-APV 30 μm). EPSCs were isolated by adding bicuculline (10 μm) and picrotoxin (20 μm). In the examination of the EPSCs, a ringer solution without MgCl2 was used. The pipette solution had the following composition (in mmol): KCl 120; MgCl2 2; CaCl2 1; HEPES 10; EGTA 11; glucose 20; the pH was 7.2.
as §3

[5] = system: primary cell cultures of cortical neurons of rats; assay: Oxygen and glucose deprivation (OGD) model, LDH level in the medium; type: cell-based; details: for LDH level: OGD, after 24 hours, OGD control 25.1
Procedure: The measurements were performed on primary cell cultures of cortical neurons of rats. After the cells were grown in culture, the following test was performed:
Glucose and oxygen were simultaneously removed from the culture solution. This model is a definitely sturdy model, which simulates the conditions during a very serious and very extensive stroke. In the zero comparison, the culture solution was left unchanged (BSS=balanced salt solution). In the control, oxygen and glucose were removed (OGD=oxygen and glucose deprivation); in the test group, Abecarnil was added simultaneously to the oxygen and glucose removal.
As damage parameters for the neurons, the LDH (lactate-dehydrogenase) level in the solution was measured by the cells. LDH is a definitely reliable stress parameter for the cells. The stronger the neuronal stress is or the more cells are already ruined, the more the LDH levels in the medium increase. From a pharmaceutical agent with a neuroprotective effect, it can be expected that it reduces the LDH level in the medium.
In FIG. 1, the values of such a measurement were depicted. If the LDH levels were below OGD 25.1, they were 11.0 with 0.1 μm of Abecarnil; 6.2 with 1 μm of Abecarnil; 14.9 with 10 μm of Abecarnil, and 15 with 100 μm of Abecarnil (after 24 hours). In the case of an Abecarnil concentration of 1 μm, this corresponds to an LDH reduction of over 75%!

## COCc1c(C(=O)OC(C)C)ncc2[nH]c3ccc(OCc4ccccc4)cc3c12 [Abecarnil, 6-benzyloxy-4-methoxymethyl-β-carboline-3-carboxylic acid isopropyl ester]
[1]
  EPSC amplitude, % of the starting value: 81.2±17.8%
  EPSC frequency, % of the starting value: 32.6±19.8%
[2]
  effect on isolated NMDA portion of EPSC activity: completely blocked
[3]
  effect on isolated AMPA-ergic activity: no effect
[4]; P<0.05
  slow time constant of the averaged IPSCs (τslow), % of the starting value: 289.7±180.9%
[4]; n=10, P<0.05
  IPSC frequency, % of the starting value: 33.8±24.7%
[4]; no statistical significance
  quick time constant of the averaged IPSCs (τfast), % of the starting value: 143.9±51.0%
[5]; 0.1 μm of Abecarnil
  LDH level: 11.0
[5]; 1 μm of Abecarnil
  LDH level: 6.2
[5]; 1 μm of Abecarnil, versus OGD
  LDH reduction: over 75%
[5]; 10 μm of Abecarnil
  LDH level: 14.9
[5]; 100 μm of Abecarnil
  LDH level: 15
